Laboratory results published in patent US20140335532A1, “HUMAN SKIN SAMPLE METHODS AND MODELS FOR VALIDATING HYPOTHESES FOR MECHANISMS DRIVING SKIN PIGMENTATION” (The Procter & Gamble Company, priority 2011, published 2014).

Columns and labels:
9 epidermal tone genes [1] = assay: Stem Cell Factor/Endothelin 1 driven ex-vivo human skin tissue, transcription of epidermal tone genes vs untreated control; type: cell-based; settings: Stem Cell Factor/Endothelin 1 driven tissue sample; 37° C. and 70% humidity; out of 9 epidermal genes; 2-10 experiments each
Method: Referring to FIGS. 19 to 23, examples (of 2-10 experiments each) are shown for the regulation of the 9 epidermal tone genes against an untreated control in ex-vivo tissue driven by the combination of Stem Cell Factor and Endothelin at 37° C. and 70% humidity for niacinamide, hexamidine, N-Acetyl glucosamine, kojic acid, tranexamic acid, and undecylenoyl phenylalanine. […] For instance, out of the 9 epidermal genes, at least one compound (undecylenoyl phenylalanine) regulated 5 genes (with a statistical significance of p<0.1 or better) while two compounds regulated 2 or fewer genes (with a p<0.1 or better). Table 2 below summarizes the number of epidermal genes regulated by certain materials in a Stem Cell Factor/Endothelin 1 driven tissue sample with a statistical significance of p≦0.1.
In example embodiments, tone is driven by application of stem cell factor and/or endothelin (with skin preparation, culturing, and mRNA processing being completed as previously described). In an example embodiment, skin samples are placed within 6-well plates, with 2.5 ml of media per well. A concentration of eighty nanograms per milliliter of stem cell factor as well as eighty nanograms per milliliter of endothelin was applied to tissue in the wells, with the media being refreshed daily. The culture was maintained for seven days. Inhibitors of tone-related genes were applied; hexamidine and undecylenoyl phenylalanine were applied topically and daily in vehicles at 0.1% and 0.25%, respectively.

9 epidermal tone genes [2] = assay: Endogenously driven ex-vivo human skin tissue, transcription of epidermal tone genes vs untreated control; type: cell-based; settings: for # Genes (out of 9) with p ≦ 0.1: endogenously driven tissue sample, 37° C. and 70% humidity, epidermal genes regulated vs untreated control, 2-10 experiments each
Method: Referring to FIGS. 11 to 15, examples are shown for the regulation of the 9 epidermal tone genes against an untreated control in an endogenously driven ex-vivo tissue system at 37° C. and 70% humidity for niacinamide, hexamidine, N-Acetyl glucosamine, kojic acid, tranexamic acid, and undecylenoyl phenylalanine (2-10 experiments each). […] For instance, out of the 9 epidermal genes, at least one compound (Hexamidine) regulated 9 genes (with a statistical significance of p<0.1 or better) while two compounds regulated 5 or fewer genes (with a p<0.1 or better). Table 1 below summarizes the number of epidermal genes regulated by certain materials in an endogenously driven tissue sample with a statistical significance of p≦0.1.
Culturing involved setting up culture plates: putting 2.5 ml of media or treatment into each well of a 6-well tissue plate, adding one Millicell culture insert to each well, and putting 100 μl of 1×DMEM on the center of each insert membrane. Squares were selected randomly placed into each of the inserts (one piece of skin per insert), on top of the media on the membrane. The plates were stored at either 33° C. (though an additional non-limiting example would be 37° C. depending on the experiment endpoint). As a control, baseline tissue measurements were collected from excess waste (cryogenics were used for snap freezing). Baseline biopsy collection involved two 4 mm punches for MTT; One 4 mm punch was snap frozen in OCT for fresh histology; One 4 mm punch was fixed in 10% formalin and sent out for paraffin embedding. PCR baseline was also be taken with six 4 mm punches snap frozen in liquid nitrogen.
Culture and treatment of the model comprised replicates of n=5 (though replicates of additional quantities may be used such as n=6). Media Dosing of skin involved solubilizing used in appropriate solvents (including PBS, Media, alcohol, and DMSO; in using DMSO, the final concentration in the plate was restricted to 0.01%). Appropriate dilutions were made for treatment: 15 ml of media were required per plate per day for treatment, with 2.5 ml of media required per well under the cell culture insert. Media was pre-warmed and changed every day during the experiment.
Skin was topically dosed. To do so, formulation for a compound of interest was obtained. Variation was minimized by having a vehicle that was as close to test formula as possible (making sure glycerin concentration was the same, determining if there was a vitamin package in the formula, determining if there was niacimamide; all of these were the same between the vehicle control formula and the test formula) (in ideal embodiments, the only difference is the unknown test compound). The skin was treated using a positive displacement pipette with 20 ul of formulation. A sterile cotton swab was used after application to spread and rub in the formula. Media was changed every day. The media was aspirated and replaced with fresh warmed media at a level of 2.5 ml per well.
For cryopreparation and extraction the following equipment was obtained and prepared: 2 ml round bottom tubes were prepared with 1 ml of TRIZOL as was a 5 mm stainless steel bead for each sample; a dry ice bucket was obtained and liquid nitrogen was placed in the bucket. Biopsy punches were maintained on dry ice, and samples remained frozen. Cryobags and covaris cryoprep were used in freeze fracturing of samples. To freeze fracture the samples, biopsies were placed in a cryo bag (2 per sample) and dipped in liquid nitrogen, then placed in cryoprep (setting 4). The sample bag was taken out and dipped back into nitrogen. A flattened disk was removed and placed into corresponding 2 ml tubes with TRIZOL. The disk was kept frozen in the TRIZOL. The tube was closed and snap frozen, and the whole tube was placed in liquid nitrogen. After repeating the process with all the samples, samples were placed into boxes and stored at −80 until the next step. […]

[3] = tested on: rat melanoma line known to produce melanin; assay: Total melanin assay in melanoma cell line; type: cell-based; settings: rat melanoma cell cultures
Method: (§1) The ex-vivo screening method has provided identification of agents consistent with in-vitro studies and which have proven positive clinically. One such example is hexyldecanol. […] For example, total melanin assays were performed using a rat melanoma line known to produce melanin. […] Therefore, promising tone agents such as hexyldecanol identified from the in-vitro model and the ex-vivo model have been tested in clinical settings.

tone genes = assay: Human Ex-vivo Pre-Clinical Model, fold regulation of tone genes by clinical formulations; type: cell-based; settings: FIGS. 25a and 25b
Method: FIGS. 25a and 25b show two respective tables showing ex-vivo model fold regulation changes indicating significant down-regulation by clinical formulations in the Human Ex-vivo Pre-Clinical Model.
as §1

[4] = tested on: facial skin pigmentation (spots, melanin evenness); assay: 9-week clinical study, randomized, double-blind, vehicle-controlled, split-face; type: in vivo, human; settings: 9-week study
Description: For example, hexyldecanol was compared to vehicle controls and positive controls (5% Niacinamide+1% undecylenoyl phenylalanine) through a 9-week period. Specifically the trial included a 9-week clinical study with a randomized, double-blind, round robin, vehicle-controlled, split-face design, including one week normalization period whereby 330 subjects received test product.

tone genes of interest = assay: Ex-vivo tissue culture exposed to compounds known to stimulate the pigmentation pathway, tone gene regulation; type: cell-based, human; settings: p≦0.1, minimum of 2-10 experiments each, FIG. 16

N=C(N)c1ccc(OCCCCCCOc2ccc(C(=N)N)cc2)cc1 [Hexamidine, hexamidine]
# of Genes with p ≦ 0.1 (9 epidermal tone genes [1]): 4 | # Genes (out of 9) with p ≦ 0.1 (9 epidermal tone genes [2]): 9

CCCCCCCCC(CO)CCCCCC (centres unmarked) [Hexyldecanol, hexyldecanol]
Total melanin produced as compared to controls [3]: decreased | Ex-vivo model gene regulation (tone genes): down-regulation | Overall clinical outcome vs vehicle ([4]; 330 subjects, significant if p<0.10 (1-sided) vs. vehicle): statistically better than vehicle controls | Melanin evenness ([4]; versus the vehicle control): significantly different from controls | Spot area fraction (total area of spots per face) ([4]; versus vehicle control group): significantly different from controls

O=c1cc(CO)occ1O [Kojic Acid, kojic acid]
# of Genes with p ≦ 0.1 (9 epidermal tone genes [1]): 2 | # Genes (out of 9) with p ≦ 0.1 (9 epidermal tone genes [2]): 5

CC(=O)N[C@H]1C(O)O[C@H](CO)[C@@H](O)[C@@H]1O (some centres unmarked) [NAG, N-Acetyl glucosamine]
# of Genes with p ≦ 0.1 (9 epidermal tone genes [1]): 1 | # Genes (out of 9) with p ≦ 0.1 (9 epidermal tone genes [2]): 6

NC(=O)c1cccnc1 [Niacinamide, niacinamide]
# of Genes with p ≦ 0.1 (9 epidermal tone genes [1]): 3 | Down-regulation of tone genes by donor Fitzpatrick type (9 epidermal tone genes [2]; 5% niacinamide, Fitzpatrick V donor vs two Fitzpatrick III donors, FIG. 1): more challenging to down-regulate | # Genes (out of 9) with p ≦ 0.1 (9 epidermal tone genes [2]): 7

C=CCCCCCCCCC(=O)N[C@@H](Cc1ccccc1)C(=O)O [Undecylenoyl phenylalanine, undecylenoyl phenylalanine]
# of Genes with p ≦ 0.1 (9 epidermal tone genes [1]): 5 | # Genes (out of 9) with p ≦ 0.1 (9 epidermal tone genes [2]): 3

Stem Cell Factor: compound known to stimulate the pigmentation pathway; paracrine agent
Regulation of tone genes of interest (tone genes of interest): up regulate one or more tone genes of interest

tranexamic acid
# of Genes with p ≦ 0.1 (9 epidermal tone genes [1]): 3 | # Genes (out of 9) with p ≦ 0.1 (9 epidermal tone genes [2]): 7

α-MSH
Regulation of tone genes of interest (tone genes of interest): up regulate one or more tone genes of interest
